Data: patent publication US12319655B2, “RAF kinase inhibitors and methods of use thereof” (Deciphera Pharmaceuticals, LLC, priority 2021, dated 2025)

Assays:
[1] = system: A375 cells; experiment: A375 Cell Proliferation Assay (2); assay type: cell-based; details: Homo sapiens, A-375
Experimental: A375 Cell Proliferation Assay (2)
A375 cells (catalog (#CRL-1619) are obtained from the American Type Culture Collect (ATTC, Manassas, VA). Briefly, cells were grown in DMEM High Glucose supplemented with 10% characterized fetal bovine serum (Invitrogen, Carlsbad, CA) and 1% Penicillin/Streptomycin/L-Glutamine at 37° C., 5% CO2, and 95% humidity. Cells are expanded until reaching 70-95% confluency at which point they are sub-cultured or harvested for assay use. Using the Beckman Coulter Echo 650, a serial dilution of test compound is dispensed into a 384-well black clear bottom plate in triplicate. Six hundred twenty-five cells are added per well in 50 μL complete growth medium in the 384-well plate. Plates are incubated for 67-72 h at 37° C., 5% CO2, and 95% humidity. At the end of the incubation, 10 μL of a 440 μM solution of resazurin (Sigma, St. Louis, MO) in PBS is added to each well of the plate and plates are incubated for an additional 3-6 h at 37° C., 5% CO2, and 95% humidity. Plates are read on a Synergy2 or equivalent reader (Biotek, Winooski VT) using an excitation of 540 nm and an emission of 600 nm. Data is analyzed using Prism software (GraphPad, San Diego, CA) to calculate IC50 values.

[2] = system: Miapaca-2 cells; experiment: MiaPaca-2 Combination Cell Proliferation Assay (2) with cobimetinib; assay type: cell-based; details: MiaPaca-2 cell proliferation, read-out: MiaPaca-2 Combo (2) IC50
Experimental: MiaPaca-2 Combination Cell Proliferation Assay (2)
Miapaca-2 cells (catalog #CRL-1420) are obtained from the American Type Culture Collect (ATCC, Manassas, VA). Briefly, cells were grown in DMEM supplemented with 10% characterized fetal bovine serum (Invitrogen, Carlsbad, CA), 2.5% New Zealand sourced horse serum and 1% Penicillin/Streptomycin/L-Glutamine at 37° C., 5% CO2, and 95% humidity. Cells are expanded until reaching 70-95% confluency at which point they are subcultured or harvested for assay use. Using the Beckman Coulter Echo 650, a threefold, 8-point serial dilution of compound was spotted column wise into a 384 well black, clear bottom, tissue culture treated plate. Likewise, a threefold, 8-point serial dilution of cobimetinib was spotted row wise into the 384 well black, clear bottom plate containing compound. DMSO concentration was constant across all wells at 0.4%. Seven hundred fifty cells are added per well in 50 μL complete growth medium in each 384-well plate. Plates are incubated for 67-72 hours at 37° C., 5% CO2, and 95% humidity. At the end of the incubation, 10 μL of a 440 μM solution of resazurin (Sigma, St. Louis, MO) in PBS is added to each well of the plate and plates are incubated for an additional 4-6 hours at 37° C., 5% CO2, and 95% humidity. Plates are read on a Synergy2 or equivalent reader (Biotek, Winooski VT) using an excitation of 540 nm and an emission of 600 nm. Drug synergy was assessed via BLISS analysis in the Combenefit software (Cancer Research UK Cambridge Institute, Cambridge, UK). Data is analyzed using Prism software (Graphpad, San Diego, CA) to calculate IC50 values. Shifts in test compound IC50 values are reported from top-constrained combination therapy curves.

Row | SMILES | IC50 [1] | IC50 [2]
1 | CNC(=O)c1cc(-c2cc(-c3cc(NC(=O)c4ccnc(C(C)(C)F)c4)ccc3Cl)ccn2)ccn1 [Example 485] | ≤ 100 nM | –
2 | Cc1ccc(NC(=O)c2ccnc(C(C)(C)F)c2)cc1-c1cnnc(-c2ccnc(C(N)=O)c2)c1 [Example 486] | 100 to 500 nM | 1000 to 10000 nM
3 | CNC(=O)c1cc(-c2cc(-c3cc(NC(=O)c4ccnc(C5(F)CC5)c4)ccc3C)ccn2)ccn1 [Example 487] | ≤ 100 nM | 100 to 500 nM
4 | Cc1ccc(NC(=O)c2ccnc(C(C)(C)F)c2)cc1-c1cc(-c2ccnc(C(N)=O)c2)ncn1 [Example 488] | 100 to 500 nM | –
5 | [2H]C([2H])([2H])NC(=O)c1cc(-c2cc(-c3cc(NC(=O)c4ccnc(C(C)(C)F)c4)ccc3C)ccn2)ccn1 [Example 489] | ≤ 100 nM | 100 to 500 nM
6 | Cc1ccc(NC(=O)c2ccnc(C(C)(C)F)c2)cc1-c1cc(-c2ccnc(C(N)=O)c2)ncc1F [Example 490] | 100 to 500 nM | –
7 | CC(C)(F)c1cc(C(=O)Nc2ccc(F)c(-c3ccnc(-c4ccnc(C(N)=O)c4)c3)c2)ccn1 [Example 491] | 1000 to 10000 nM | –
8 | CNC(=O)c1cc(-c2cc(-c3cc(NC(=O)c4cnnc(C(C)(F)F)c4)ccc3C)ccn2)ccn1 [Example 492] | 100 to 500 nM | –
9 | [2H]C([2H])([2H])NC(=O)c1cc(-c2cc(-c3cc(NC(=O)c4ccnc(C(C)(C)F)c4)ccc3C)cc(C)n2)ccn1 [Example 493] | ≤ 100 nM | 100 to 500 nM
10 | CNC(=O)c1cc(-c2cc(-c3cc(NC(=O)c4ccnc(C(C)(C)F)n4)ccc3C)ccn2)ccn1 [Example 494] | 1000 to 10000 nM | –
11 | CNC(=O)c1cc(-c2cc(-c3cc(NC(=O)c4cnnc(C(C)(C)F)c4)ccc3C)ccn2)ccn1 [Example 495] | ≤ 100 nM | –
12 | CNC(=O)c1cc(-c2cc(-c3cc(NC(=O)c4ccnc(C5(F)CC5)c4)ccc3C)cc(C)n2)ccn1 [Example 496] | ≤ 100 nM | –
13 | CNC(=O)c1cc(-c2cc(-c3cc(NC(=O)c4ccnc(C(C)(C)F)c4)c(F)cc3C)ccn2)ccn1 [Example 497] | 100 to 500 nM | –
14 | [2H]C([2H])([2H])NC(=O)c1cc(-c2cc(-c3cc(NC(=O)c4ccnc(C5(F)CC5)c4)ccc3C)cc(C)n2)ccn1 [Example 498] | 100 to 500 nM | –
15 | CNC(=O)c1cc(-c2cc(-c3cc(NC(=O)c4ccnc(C(C)(C)F)c4)ncc3C)ccn2)ccn1 [Example 499] | ≤ 100 nM | –
16 | Cc1ccc(NC(=O)c2cn(C)nc2C(F)(F)F)cc1-c1cncc(-c2ccnc(NC(=O)C3CC3)c2)c1 [Example 500] | 1000 to 10000 nM | –
17 | Cc1ccc(NC(=O)c2ccc(C(F)(F)F)cc2)cc1-c1ccnc(-c2ccnc(NC(=O)C3CC3)c2)c1 [Example 501] | 100 to 500 nM | –
18 | Cc1ccc(NC(=O)c2cccc(C(F)(F)F)c2)cc1-c1ccnc(-c2ccnc(NC(=O)C3CC3)c2)c1 [Example 502] | ≤ 100 nM | –
19 | Cc1ccc(NC(=O)c2cc(C(F)(F)F)ccc2F)cc1-c1ccnc(-c2ccnc(NC(=O)C3CC3)c2)c1 [Example 503] | 100 to 500 nM | –
